Measurements from patent US20210046106A1, “METHODS OF TREATING CANCER WITH ANDROGEN DEPRIVATION THERAPY IN COMBINATION WITH AN INHIBITOR OF THE SP1 TRANSCRIPTION FACTOR” (The Board of Trustees of the Leland Stanford Junior …, priority 2019, published 2021).

System: AR and PSA
Assay: NAC pretreatment and down-regulation of AR and PSA in LAPC-4 cells
Format: cell-based
Conditions: 10 mmol/L NAC 24 h pretreatment

CC(=O)N[C@@H](CS)C(=O)O [NAC, N-acetylcysteine]
effect of NAC on methylseleninic acid (MSeA)-induced down-regulation of the AR and PSA (then 10 μmol/L MSeA 24 h): does not inhibit
effect of NAC on selenite-induced down-regulation of the AR and PSA (then selenite 24 h): inhibits
